Source: US10028931B2, “Synergistic compositions for treating microbial infections” (UNIVERSITY OF ROCHESTER, priority 2014, dated 2018)
Values after ≈ are worked out from the molar mass of the structure shown. Like-named read-outs stand apart in the source and are kept apart here.

Columns and labels:
[1] = tested on: Staphylococcus aureus strain UAMS-1; assay: Antimicrobial susceptibility testing (MIC, broth microdilution); assay type: cell-based; conditions: S. aureus UAMS-1, Mueller Hinton broth, 37° C.
Protocol: The RNase P inhibitors described herein were tested for antimicrobial activity toward Staphylococcus aureus strain UAMS-1. Individual wells of a 96-well microtiter plate were inoculated with ˜1×10^5 colony-forming units (CFU) of the indicated organism, containing two-fold increasing concentrations (from 0 to 256 μg mL^−1) of the indicated antibiotic or putative RnpA inhibitor, and incubated at 37° C. for 18 hours in Mueller Hinton broth. The MIC was defined as the lowest concentration of antibiotic in which there was no visible bacterial growth in the wells. Minimum bactericidal concentration testing was performed by enumerating the bacterial cells in each of the wells containing treatments at and above the MIC.

RnpA = molecular target: T1, RnpA (Staphylococcus aureus, UniProt P0A0H5); assay: RnpA mRNA degradation activity assay; assay type: biochemical
T1 sequence (P0A0H5 1-117): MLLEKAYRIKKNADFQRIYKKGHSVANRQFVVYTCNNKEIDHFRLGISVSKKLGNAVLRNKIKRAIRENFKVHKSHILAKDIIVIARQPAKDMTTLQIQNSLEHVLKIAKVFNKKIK
Protocol: The RNase P inhibitors described herein were tested for activity toward RnpA mRNA degradation activity. Either 1 μg of total S. aureus RNA or 1 pmol of in vitro synthesized spa mRNA was incubated with 20 pmol RnpA at 37° C. for 15 to 30 min in a reaction buffer (50 mM Tris-HCl pH 8.0, 2 mM NaCl, 2 mM MgCl2) in the absence or presence of the indicated compound. Reactions were stopped by adding an equal volume of 2×RNA loading dye (95% formamide, 0.025% SDS, 0.025% bromophenol blue, 0.025% xylene cyanol FF, 0.5 mM EDTA), run on a denaturing 1.0% agarose-0.66 M formaldehyde gel and stained with ethidium bromide. RNA substrates and corresponding degradation products were visualized using a FluorChem 5500 system (Alpha Innotech; San Leandro, Calif.). The inhibitory effects of the test compounds were measured using Image J densitometry software (National Institutes of Health; Bethesda, Md.) to quantify the signal intensity of the RNA band(s) in the negative control (RNA alone), positive control (RnpA+RNA+DMSO), and experimental samples (RnpA+RNA+test compound). The percent enzyme inhibition of test compounds was calculated using the following equation: Percent inhibition=[(experimental signal-positive control)/(negative control signal-positive control signal)]*100.

[2] = molecular target: T2, S. aureus RNase P (RnpA+rnpB) (Staphylococcus aureus, UniProt P0A0H5); assay: RNase P activity assay (precursor tRNA processing); assay type: biochemical; conditions: gel densitometry
T2 sequence (P0A0H5 1-117): T1 sequence (P0A0H5 1-117)
Protocol: The RNase P inhibitors described herein were tested for activity toward RNase P. S. aureus RNase P activity assays were performed in low salt buffer (50 mM Tris-HCl pH 8.0, 5 mM MgCl2) or in high salt buffer (50 mM Tris-HCl pH 8.0, 100 mM MgCl2, 800 mM NH4Cl). For all reactions, ptRNATyr, tRNATyr, or rnpB RNA species were first denatured by heating to 95° C. for 3 minutes, and then slowly cooling the mixtures to room temperature. RNase P was reconstituted by mixing an equal molar ratio of RnpB and RnpA for 15 min at 37° C. Precursor tRNA processing reactions (20 μL) were performed by mixing 1.25 pmol RNase P (RnpA+rnpB), RnpA, or rnpB with an equal volume of 2× low salt buffer or 2× high salt buffer and 10 pmol ptRNATyr. Mixtures were incubated for 15 min at 37° C. Reactions were stopped by adding 20 μL 2×RNA loading dye (95% formamide, 0.025% SDS, 0.025% bromophenol blue, 0.025% xylene cyanol FF, 0.5 mM EDTA), and 30 μL of each sample was electrophoresed in a 7 M urea/8% polyacrylamide gel and was then stained with ethidium bromide (0.5 μg/ml). Where indicated, reactions were repeated in the presence of the indicated amount of putative RnpA inhibitors or dimethyl sulfoxide (DMSO). A FluorChem 5500 imaging system was used to visualize the RNA, and the relative abundance of the mature tRNATyr band in the positive control (RNase P+DMSO) or in samples containing test compounds was measured using Image J densitometry software (NIH). The percent RNase P activity was then calculated using the following calculation: (test compound tRNATyr signal/positive control tRNATyr signal)*100.

[3] = Staphylococcus aureus, UAMS1, 18 h, read-out: MIC
[4] = RnpA mRNA degradation, gel densitometry, read-out: RnpA IC50
[5] = ptRNATyr processing, read-out: RNase P IC50

Structure (SMILES)	MIC [1, 3]	IC50 (RnpA; [4])	IC50 [2, 5]	MIC ([1]; 18 hours)	IC50 ([2]; RNase P IC50, ptRNATyr processing)	IC50 (RnpA)
CCCCCCCC(=O)NC(=S)NNC(=O)COc1ccc(C(C)CC)cc1 (stereo not shown) [ST5528863]	> 128 µg/mL	> 500 µM	490 µM	–	–	–
O=C(NC(=S)NNC(=O)c1ccccc1O)c1ccco1 [MC-190069]	–	> 500 µM	470 µM	64 µg/mL (≈ 210 µM)	–	–
CC(C)c1ccc(OCC(=O)NNC(=O)c2cc3ccccc3n2C)cc1 [MC-190057]	> 256 µg/mL	> 500 µM	70 µM	–	–	–
CC(C)c1ccc(OCC(=O)NNC(=S)NC(=O)Cc2ccco2)cc1 [MC-190084]	16 µg/mL (≈ 42.6 µM)	–	–	–	–	–
O=C(NNC(=S)NC(=O)c1ccco1)c1cccnc1 [ST5254078]	128 µg/mL (≈ 441 µM)	> 500 µM	> 500 µM	–	–	–
CC(C)c1ccc(OCC(=O)NNC(=S)NC(=O)c2cnc3ccccc3c2)cc1 [MC-190082]	> 128 µg/mL	–	–	–	–	–
CCCCC(=O)Nc1ccc(C(=O)NNC(=S)NC(=O)c2ccco2)cc1 [ST5526667]	> 128 µg/mL	80 µM	90 µM	–	–	–
CC(C)c1ccc(CCNc2c(NCCc3ccco3)c(=O)c2=O)cc1 [MC-190090]	256 µg/mL (≈ 726 µM)	50 µM	–	–	–	–
COc1ccc(C(=O)NNC(=S)NC(=O)c2ccco2)cc1 [ST5254069]	16 µg/mL (≈ 50.1 µM)	> 500 µM	> 500 µM	–	–	–
O=C(CCc1ccccc1)NNC(=S)NC(=O)c1ccco1 [MC-190080]	> 128 µg/mL	–	–	–	–	–
Cc1ccccc1C(=O)NNC(=S)NC(=O)c1ccco1 [ST5638722]	64 µg/mL (≈ 211 µM)	> 500 µM	430 µM	–	–	–
CCC(C)c1ccc(OCC(=O)NNC(=S)NC(=O)c2ccc(-c3ccccc3)cc2)cc1 (stereo not shown) [ST5525289]	64 µg/mL (≈ 139 µM)	40 µM	> 500 µM	–	–	–
CC(C)c1ccc(OCC(=O)NNC(=O)c2ccsc2)cc1 [MC-190036]	> 256 µg/mL	> 500 µM	> 500 µM	–	–	–
CC(C)c1ccc(CNc2c(NCCc3ccco3)c(=O)c2=O)cc1 [MC-190092]	256 µg/mL (≈ 756 µM)	250 µM	250 µM	–	–	–
O=C(Cc1ccccc1)NNC(=S)NC(=O)c1ccco1 [ST5682126]	> 128 µg/mL	–	> 500 µM	–	–	–
O=C(NC(=S)NNC(=O)c1ccc(O)cc1O)c1ccco1 [ST5640720]	16 µg/mL (≈ 49.8 µM)	> 500 µM	> 500 µM	–	–	–
COc1cccc(OC)c1C(=O)NC(=S)NNC(=O)c1ccco1 [ST5638707]	128 µg/mL (≈ 366 µM)	> 500 µM	> 500 µM	–	–	–
O=C(COc1ccc(Cl)cc1Cl)NNC(=S)NC(=O)c1ccco1 [ST5682846]	4 µg/mL (≈ 10.3 µM)	> 500 µM	–	–	80 µM	–
CC(C)c1ccc(CCNc2c(NCc3nc4ccccc4[nH]3)c(=O)c2=O)cc1 [MC-190087]	> 128 µg/mL	–	–	–	–	–
CC(C)c1ccc(OCC(=O)NNC(=S)NC(=O)c2ccncc2)cc1 [MC-190050]	128 µg/mL (≈ 344 µM)	–	150 µM	–	–	> 500 µM
CCC(C)c1ccc(OCC(=O)NNC(=S)NC(=O)C2CCCCC2)cc1 (stereo not shown) [ST5525281]	–	275 µM	125 µM	–	–	–

Structure (SMILES)	MIC [1, 3]	IC50 (RnpA; [4])	IC50 [2, 5]	MIC ([1]; 18 hours)	IC50 ([2]; RNase P IC50, ptRNATyr processing)	IC50 (RnpA)
COc1ccc(OCC(=O)NNC(=S)NC(=O)c2ccco2)cc1 [MC-190070]	64 µg/mL (≈ 183 µM)	> 500 µM	> 500 µM	–	–	–
CC(C)c1ccc(CNc2c(NCc3ccco3)c(=O)c2=O)cc1 [MC-190091]	128 µg/mL (≈ 395 µM)	25 µM	–	–	–	–
O=C(CNC(=O)C1CCCCC1)NNC(=S)NC(=O)c1ccco1 [ST5526682]	> 128 µg/mL	> 500 µM	200 µM	–	–	–
CCc1ccc(OCc2ccc(C(=O)NNC(=S)NCC(C)C)o2)cc1 [ST5607293]	> 128 µg/mL	> 500 µM	> 500 µM	–	–	–
O=C(NNC(=S)NC(=O)c1ccco1)c1ccc(NC(=O)c2ccccc2)cc1 [ST5524510]	> 128 µg/mL	–	> 500 µM	–	–	–
CC(C)(C)c1ccc(C(=O)Nc2ccc(C(=O)NNC(=S)NC(=O)c3ccco3)cc2)cc1 [ST5524997]	32 µg/mL (≈ 68.9 µM)	300 µM	70 µM	–	–	–
O=C(NC(=S)NNC(=O)c1ccccc1O)c1ccco1 [ST5703881]	–	> 500 µM	> 500 µM	16 µg/mL (≈ 52.4 µM)	–	–
Cc1ccccc1OCC(=O)NNC(=S)NC(=O)/C=C/c1ccco1 [ST5524973]	32 µg/mL (≈ 89 µM)	220 µM	80 µM	–	–	–
Cc1ccccc1C(=O)NNC(=S)NC(=O)COc1ccccc1 [ST5521953]	32 µg/mL (≈ 93.2 µM)	> 500 µM	> 500 µM	–	–	–
O=C(NNC(=S)NC(=O)c1ccco1)c1ccncc1 [ST4145527]	> 128 µg/mL	> 500 µM	> 500 µM	–	–	–
COc1ccc(C(=O)NC(=S)NNC(=O)c2ccco2)cc1 [ST5254089]	64 µg/mL (≈ 200 µM)	> 500 µM	180 µM	–	–	–
CC(C)CNC(=S)NNC(=O)c1ccc(COc2ccc(C(C)(C)C)cc2)o1 [ST5607017]	> 128 µg/mL	70 µM	> 500 µM	–	–	–
CC(C)c1ccc(CCNc2c(NCc3cc4ccccc4o3)c(=O)c2=O)cc1 [MC-190088]	> 128 µg/mL	–	–	–	–	–
CC(C)c1ccc(CCNc2c(NCc3ccccn3)c(=O)c2=O)cc1 [MC-190086]	> 128 µg/mL	–	–	–	–	–
Cc1ccc(CNc2c(NCCc3ccc(C(C)C)cc3)c(=O)c2=O)o1 [MC-190085]	> 128 µg/mL	–	–	–	–	–
CC(C)c1ccc(OCC(=O)NNC(=S)NC(=O)c2cnco2)cc1 [MC-190039]	64 µg/mL (≈ 177 µM)	–	–	–	–	> 500 µM
COCCOC(=O)CCC(=O)NC(=S)NNC(=O)COc1ccc(C(C)C)cc1 [ST5528839]	> 128 µg/mL	–	> 500 µM	–	–	–
CC(C)c1ccc(OCC(=O)NNC(=S)NC(=O)c2ccoc2)cc1 [MC-190098]	16 µg/mL (≈ 44.3 µM)	–	150 µM	–	–	–
O=C(NC(=S)NNC(=O)c1ccco1)c1cccnc1 [ST5254088]	> 128 µg/mL	–	> 500 µM	–	–	–
CC(C)c1ccc(CCNc2c(NCc3ccco3)c(=O)c2=O)cc1 [MC-190083]	> 128 µg/mL	–	–	–	–	–
Cc1ccc(OCC(=O)NNC(=S)NC(=O)COc2ccccc2)cc1 [ST5521633]	16 µg/mL (≈ 42.8 µM)	–	155 µM	–	–	–
